# From patent US9635859B2, “Pesticidal compositions and processes related thereto” (Dow AgroSciences LLC, priority 2012, dated 2017)
# Test system: Beet Armyworm (Spodoptera exigua)
# Experiment: Bioassays on BAW, 128-well diet tray assay
# Assay type: in vivo
# Details: percent mortality, second instar larvae, 50 μg/cm^2 on artificial diet, five to seven days, 25° C.; Table 3
# Description: Certain molecules disclosed in this document were tested against BAW and CEW and CL using procedures described in the following examples. In the reporting of the results, the “BAW & CEW & CL Rating Table” was used (See Table Section).
# Bioassays on BAW (Spodoptera exigua)
# Bioassays on BAW were conducted using a 128-well diet tray assay. one to five second instar BAW larvae were placed in each well (3 mL) of the diet tray that had been previously filled with 1 mL of artificial diet to which 50 μg/cm^2 of the test compound (dissolved in 50 μL of 90:10 acetone-water mixture) had been applied (to each of eight wells) and then allowed to dry. Trays were covered with a clear self-adhesive cover, and held at 25° C., 14:10 light-dark for five to seven days. Percent mortality was recorded for the larvae in each well; activity in the eight wells was then averaged. The results are indicated in the table entitled “Table 3: Assay Results” (See Table Section).
row,SMILES,BAW Rating
1,FC(F)(F)C(/C=C/c1ccc(-n2cncn2)c(Cl)c1)c1cc(Cl)cc(Cl)c1 (stereo not drawn) [DC50],A (50-100)
2,O=C(CC(F)(F)F)NCc1ccc(/C=C/C(c2ccc(Cl)c(Cl)c2)C(F)(F)F)cc1Cl (stereo not drawn) [CC18],A (50-100)
3,O=C(CNC(=O)c1ccc(/C=C/C(c2cc(Cl)c(F)c(Cl)c2)C(F)(F)F)cc1[N+](=O)[O-])NCC(F)(F)F (stereo not drawn) [AC98],A (50-100)
4,Cc1cc(/C=C/C(c2cc(Cl)cc(Cl)c2)C(F)(F)F)ccc1C(=O)N(C)Cc1ccc(Cl)nc1 (stereo not drawn) [AC117],A (50-100)
5,COc1c(Cl)cc(C(/C=C/c2ccc(-n3cncn3)c(C#N)c2)C(F)(F)F)cc1Cl (stereo not drawn) [DC34],A (50-100)
6,"N#Cc1cc(/C=C/C(c2cc(Cl)c(Cl)c(Cl)c2)C(F)(F)F)ccc1-n1cnc(N(C(=O)C2CC2)C(=O)C2CC2)n1 (stereo not drawn) [DC42, (E)-N-(1-(2-Cyano-4-(4,4,4-trifluoro-3-(3,4,5-trichlorophenyl)but-1-en-1-yl)phenyl)-1H-1,2,4-triazol-3-yl)-N-(cyclopropanecarbonyl)cyclopropanecarboxamide]",A (50-100)
7,"CNc1cc(/C=C/C(c2cc(Cl)cc(Cl)c2)C(F)(F)F)ccc1-n1cncn1 (stereo not drawn) [DC57, (E)-5-(3-(3,5-Dichlorophenyl)-4,4,4-trifluorobut-1-en-1-yl)-N-methyl-2-(1H-1,2,4-triazol-1-yl)aniline]",A (50-100)
8,FC(F)(F)c1cc(/C=C/C(c2cc(Cl)cc(Cl)c2)C(F)(F)F)ccc1-n1cncn1 (stereo not drawn) [DC51],A (50-100)
9,N#Cc1cc(/C=C\C(c2cc(Cl)c(F)c(Cl)c2)C(F)(F)F)ccc1-n1cncn1 (stereo not drawn) [DC46],A (50-100)
10,"O=C(CNC(=O)c1ccc(/C=C/C(c2cc(Cl)c(F)c(Cl)c2)C(F)(F)F)cc1Br)NCC(F)(F)F (stereo not drawn) [AC79, (E)-2-Bromo-4-(3-(3,5-dichloro-4-fluorophenyl)-4,4,4-trifluorobut-1-en-1-yl)-N-(2-oxo-2-((2,2,2-trifluoroethyl)amino)ethyl)benzamide]",A (50-100)
11,"COC(/C=C/c1ccc(-n2cncn2)cc1)(c1cc(Cl)cc(Cl)c1)C(F)(F)F (stereo not drawn) [DC70, (E)-1-(4-(3-(3,5-Dichlorophenyl)-4,4,4-trifluoro-3-methoxybut-1-en-1-yl)phenyl)-1H-1,2,4-triazole]",A (50-100)
12,COc1cc(/C=C/C(c2cc(Cl)c(F)c(Cl)c2)C(F)(F)F)ccc1C(=O)NC1CSC1 (stereo not drawn) [AC71],A (50-100)
13,"CCNC(=S)NCc1ccc(/C=C/C(c2cc(Cl)c(Cl)c(Cl)c2)C(F)(F)F)cc1Cl (stereo not drawn) [CC37, (E)-1-(2-Chloro-4-(4,4,4-trifluoro-3-(3,4,5-trichlorophenyl)but-1-en-1-yl)benzyl)-3-ethylthiourea]",A (50-100)
14,CCc1cc(/C=C/C(c2cc(Cl)c(F)c(Cl)c2)C(F)(F)F)ccc1C(=O)NCC(=O)NCC(F)(F)F (stereo not drawn) [AC80],A (50-100)
15,FC(F)(F)C(/C=C/c1ccc(-n2cncn2)cc1Cl)c1cc(Cl)cc(Cl)c1 (stereo not drawn) [DC67],A (50-100)
16,Cc1cc(/C=C/C(c2cc(Cl)c(F)c(Cl)c2)C(F)(F)F)ccc1C(=O)NCc1ccc(Cl)cn1 (stereo not drawn) [AC53],A (50-100)
17,"O=C(CNC(=O)c1ccc(/C=C\C(c2cc(Cl)c(Cl)c(Cl)c2)C(F)(F)F)cc1Br)NCC(F)(F)F (stereo not drawn) [AC95, (Z)-2-Bromo-N-(2-oxo-2-((2,2,2-trifluoroethyl)amino)ethyl)-4-(4,4,4-trifluoro-3-(3,4,5-trichlorophenyl)but-1-en-1-yl)benzamide]",A (50-100)
18,Cc1cc(/C=C/C(c2cc(Cl)c(Cl)c(Cl)c2)C(F)(F)F)ccc1C(=O)NCc1ccc(Cl)nc1 (stereo not drawn) [AC22],A (50-100)
19,O=C(NCc1ccc(Cl)nc1)c1ccc(/C=C/C(c2cc(Cl)c(F)c(Cl)c2)C(F)(F)F)cc1Br (stereo not drawn) [AC63],A (50-100)
20,FC(F)(F)c1cc(C(/C=C/c2ccc(-n3cncn3)cc2)C(F)(F)F)cc(C(F)(F)F)c1 (stereo not drawn) [DC16],A (50-100)
21,O=C(NCc1ccc(/C=C/C(c2cc(Cl)c(Cl)c(Cl)c2)C(F)(F)F)cc1Br)C1CC1 (stereo not drawn) [CC26],A (50-100)
